Source: US5047404A, “Chemical compounds” (Smith Kline & French Laboratories, Ltd., priority 1988, dated 1991)

Experiments:
[1] = test system: ovalbumen-induced bronchoconstrictor response; assay: Anti-allergic activity: ovalbumen-induced bronchoconstrictor response in sensitised guinea-pigs; assay type: in vivo, guinea-pigs (male Duncan Hartley); conditions: dose 28 μmol/kg i.v. bolus, ovalbumen 1 mg.kg^-1 i.v. challenge 30 min after drug
Protocol: Male Duncan Hartley guinea-pigs (250-300 g) were sensitised to ovalbumen by i.p. injection of 2 ml of 50 mg.ml^-1 i.p. and 0.2 ml s.c. Three weeks later they were anaesthetised with 60 mg.kg^-1 sodium pentabarbitone. The trachea was cannulated and the animal respired at a rate of 40 breaths per minute and at an initial tracheal inflation pressure of 16 mmHg. Tracheal inflation pressure was measured by a transducer connected to a side arm of the respiration circuit. The carotid artery was cannulated for the measurement of blood pressure and the signal was used to trigger an instantaneous rate meter. A jugular vein was cannulated for the administration of drug and allergen. After surgery the animals were allowed to stabilise and the drug was administered i.v. as a bolus. Following this, ovalbumen 1 mg.kg^-1 was injected i.v. as the antigen challenge either 2, 15 or 30 minutes following drug treatment and the peak bronchoconstrictor response recorded. For the control group ovalbumen only was given. One ovalbumen challenge per guinea-pig was used and n=6 for each time point. The percentage increase in tracheal inflation pressure was calculated. The following results indicating an anti-allergic activity were obtained.

[2] = biological target: calmodulin insensitive cyclic GMP phosphodiesterase (Homo sapiens, UniProt O76074); assay: Phosphodiesterase activity: inhibition of calmodulin insensitive cyclic GMP phosphodiesterase; assay type: biochemical; conditions: procedure of European Patent Application No. 293063; read-out: IC50 (concentration of inhibitor required for 50% inhibition of enzyme activity)
[3] = test system: hindquarter vascular resistance; assay: Vasodilatation in vivo: hindquarter blood flow, perfused hind quarters; design: species or system rats (male Wistar); conditions: anaesthetised rats; bolus i.v., 10 μmol/kg
Protocol: Male Wistar rats (300 g) were anaesthetised with a sodium 5-ethyl-5-(I-methylpropyl)-2-thiobarbiturate/sodium pentobarbitone mixture i.p. (62.5 and 22.5 mg/kg respectively). The trachea was cannulated and the rats breathed spontaneously air enriched with O2 (5 ml/min). Blood pressure was recorded from a carotid artery and a jugular vein was cannulated for the administration of compounds. The temperature of the animal was maintained at 37° C. by the use of an electric blanket. […] The perfusion circuit was primed with 5% bovine serum albumin dissolved in 0.9% sodium chloride solution, pH adjusted to 7.4. Initially the pump rate was set between 10 and 15 ml/min to match the hind quarter perfusion pressure to that of the systemic circulation. Once set, the pressure remained unaltered for the rest of the experiment. A change in the speed of the pump (equivalent to hindquarter blood flow) was used to assess the changes in hindquarter vascular resistance.

**Q.** How did the “% Inhibition of Control Bronchoconstrictor Response 30 min after drug administration” value [1] turn out when `CCCOc1ccccc1-c1nc2ncccc2c(=O)[nH]1` [Example 1, 2-(2-Propoxyphenyl)pyrido[2,3-d]pyrimid-4(3H)-one] was run?
**A.** 9%

**Q.** With `CCCOc1ccccc1-c1nc2ncc(=O)[nH]c2c(=O)[nH]1` [Example 6, 2-(2-Propoxyphenyl)pteridin-4,6(3H,5H)-dione] as the compound, how does the IC50 [2] read?
**A.** 0.55 to 11.4 µM

**Q.** `CCCOc1ccccc1-c1nc2[nH]c(=O)c(=O)[nH]c2c(=O)[nH]1` [Example 7, 2-(2-Propoxyphenyl)pteridin-4,6,7(3H,5H,8H)-trione] was tested. Which IC50 [2] did it give?
**A.** 0.55 to 11.4 µM

**Q.** `CCCOc1ccccc1-c1nc2nnc(NC)nc2c(=O)[nH]1` [Example 10, 3-Methylamino-5,6-dihydro-5-oxo-7-(2-propoxyphenyl)pyrimido[5,4-e][1,2,4]triazine] was tested. Which IC50 [2] did it give?
**A.** 0.55 to 11.4 µM

**Q.** How did the IC50 [2] turn out when `CCCOc1ccccc1-c1nc2nnc(OC)nc2c(=O)[nH]1` [Example 11, 3-Methoxy-5,6-dihydro-5-oxo-7-(2-propoxyphenyl)pyrimido[5,4-e][1,2,4]triazine] was run?
**A.** 0.55 to 11.4 µM

**Q.** For `CCCOc1ccccc1-c1nc2nc(SC)nnc2c(=O)[nH]1` [Example 12, 3-Methylthio-8-oxo 6-(2-propoxyphenyl)-7,8-dihydropyrimido[4,5-e][1,2,4]triazine], which “increase in hindquarter blood flow” value [3] is on record?
**A.** 38%
